# Measured values from patent US8178543B2, “Bi- and tricyclic fused pyrimidines as tyrosine kinase inhibitors” (Takeda Pharmaceutical Company Limited, priority 2004, dated 2012).
# Molecular target: T1, EGF receptor intracellular domain protein (Homo sapiens, UniProt P00533)
# T1 construct: encoding EGF receptor intracellular domain region, so that the protein contains an N-terminal Flag tag; made in house; host or cells: SF-21 insect cells, recombinant baculovirus BAC-EGFR
# Test: Determination of EGF receptor kinase inhibitory activity
# Format: biochemical
# Details: 1.0 μM test compound; biotinyl-poly-Glu:Tyr (4:1), AlphaScreen, 25° C., 10 min; read-out: EGF receptor kinase Inhibitory rate (%) at 1.0 μM
# Method: Human EGF receptor gene was cloned by RT-PCR using total RNA prepared from A431 cells as a template. The primer for RT-PCR was prepared from nucleotide sequence (Genbank Accession XM—167493) information of EGF receptor gene by adding a nucleotide sequence encoding flag peptide and a restriction enzyme recognition sequence to a nucleotide sequence (2182-3810 of Genbank Accession XM—167493) encoding EGF receptor intracellular domain region, so that the protein contains an N-terminal Flag tag. The primer nucleotide sequence is shown below.
# The RT reaction was conducted using SuperScript First-Strand Synthesis System for RT-PCR (Invitrogen) and the PCR reaction was conducted using a KOD-plus kit (TOYOBO). The obtained PCR product was electrophoresed on agarose gel (1%), the DNA fragment amplified by PCR was recovered from the gel, and then digested with restriction enzymes Sal I and Sph I. The DNA treated with the restriction enzymes was electrophoresed on agarose gel (1%), and the obtained DNA fragment was recovered and ligated to plasmid pFASTBAC1 (Invitrogen) digested with restriction enzymes Sal I and Sph I to give expression plasmid pFB-EGFR. The nucleotide sequence of insertion fragment was confirmed and found to be identical with the nucleotide sequence (2182-3810 of Genbank Accession XM—167493) of EGFR intracellular domain. Furthermore, using BAC-TO-BAC Baculovirus Expression System (Invitrogen), virus stock BAC-EGFR of recombinant baculovirus was prepared.
# SF-21 cells were sown at 1×10^6 cells/mL to Sf-900II SFM medium (1 L, Invitrogen) containing 10% fetal bovine serum (trace), 50 mg/L gentamicin (Invitrogen) and 0.1% Pluronic F-68 (Invitrogen), and shaking culture was performed using a 2 L volume Erlenmeyer flask at 27° C., 100 rpm. After culturing for 24 hrs, recombinant baculovirus BAC-EGFR (13.4 mL) was added, and the mixture was further cultured for 3 days. The culture medium was centrifuged at 2,000 rpm for 5 min. to give virus-infected cells. The infected cells were washed with a phosphate buffered saline (Invitrogen), centrifuged under the same conditions, and the cells were preserved at −80° C. The cryopreserved cells were thawed in ice, suspended in buffer A (50 mM Tris buffer (30 mL, pH7.4) containing 20% glycerol, 0.15 M NaCl) supplemented with Complete Protease Inhibitor (Boehringer), and ruptured 3 times with a Polytron homogenizer (Kinematica) at 20,000 rpm for 30 sec. The ruptured medium was clarified by centrifugation at 40,000 rpm for 30 min. and filtered with a 0.45 μm filter. The filtrate was passed through a column packed with Anti-FLAG M2 Affinity Gel (4 mL, Sigma) at a flow rate of about 0.5 mL/min. The column was washed with buffer A, and eluted with buffer A containing 100 μg/mL of FLAG peptide. The eluate was concentrated with Vivaspin 20 (Vivascience) having a molecular weight cut off of 30K. The buffer of this concentrate was exchanged using NAPE 25 column (Amersham Bioscience) equilibrated with buffer A. The fractions containing EGF receptor intracellular domain protein were collected, glycerol was added to the final concentration of 50% and cryopreserved at −80° C.
# A test compound dissolved in dimethyl sulfoxide (DMSO) was diluted with a buffer (50 mM Tris-HCl (pH 7.5), 5 mM MgCl2, 5 mM MnCl2, 2 mM dithiothreitol, 0.01% Tween-20). To this compound solution (5 μL) was added a buffer (10 μL) containing 250 ng/mL of EGF receptor intracellular domain protein and 250 ng/mL of biotin labeled polypeptide biotinyl-poly-Glu:Tyr (4:1) (CIS bio International). […]
# T1 sequence (P00533 669-1210 limits assumed): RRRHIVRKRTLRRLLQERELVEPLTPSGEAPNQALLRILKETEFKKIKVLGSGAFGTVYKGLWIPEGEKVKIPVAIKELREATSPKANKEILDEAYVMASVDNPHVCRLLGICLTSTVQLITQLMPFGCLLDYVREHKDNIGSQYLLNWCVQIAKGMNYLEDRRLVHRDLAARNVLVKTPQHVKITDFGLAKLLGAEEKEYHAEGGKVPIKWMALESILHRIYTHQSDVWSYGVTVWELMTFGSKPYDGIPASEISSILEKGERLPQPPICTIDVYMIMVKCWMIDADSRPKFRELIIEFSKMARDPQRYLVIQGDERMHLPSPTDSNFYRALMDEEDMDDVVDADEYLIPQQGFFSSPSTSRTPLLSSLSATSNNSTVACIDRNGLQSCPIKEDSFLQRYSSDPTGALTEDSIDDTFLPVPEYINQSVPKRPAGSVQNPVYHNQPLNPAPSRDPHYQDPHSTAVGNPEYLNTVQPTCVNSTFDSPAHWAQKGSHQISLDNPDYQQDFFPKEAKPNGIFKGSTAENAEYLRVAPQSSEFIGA
row,SMILES,inhibition at 1 µM [%]
1,"Cn1c(/C=C/CO)cc2ncnc(Nc3ccc(OCc4cccc(F)c4)c(Cl)c3)c21 [Example 22, (2E)-3-[4-({3-chloro-4-[(3-fluorobenzyl)oxy]phenyl}amino)-5-methyl-5H-pyrrolo[3,2-d]pyrimidin-6-yl]-2-propen-1-ol]",98.5
2,"OCCn1ccc2ncnc(Nc3ccc(OCc4cccc(F)c4)c(Cl)c3)c21 [Example 41, 2-[4-({3-chloro-4-[(3-fluorobenzyl)oxy]phenyl}amino)-5H-pyrrolo[3,2-d]pyrimidin-5-yl]ethanol]",98.9
3,"OCCOCCn1ccc2ncnc(Nc3ccc(OCc4cccc(F)c4)c(Cl)c3)c21 [Example 138, 2-{2-[4-({3-chloro-4-[(3-fluorobenzyl)oxy]phenyl}amino)-5H-pyrrolo[3,2-d]pyrimidin-5-yl]ethoxy}ethanol]",99
4,"OCCOCCn1ccc2ncnc(Nc3ccc(Oc4cccc(C(F)(F)F)c4)c(Cl)c3)c21 [Example 147, 2-{2-[4-({3-Chloro-4-[3-(trifluoromethyl)phenoxy]phenyl}amino)-5H-pyrrolo[3,2-d]pyrimidin-5-yl]ethoxy}ethanol]",96
5,"CS(=O)(=O)CC(=O)NCCn1ccc2ncnc(Nc3ccc(Oc4cccc(C(F)(F)F)c4)c(Cl)c3)c21 [Example 160, N-{2-[4-({3-chloro-4-[3-(trifluoromethyl)phenoxy]phenyl}amino)-5H-pyrrolo[3,2-d]pyrimidin-5-yl]ethyl}-2-(methylsulfonyl)acetamide]",97

# Tested on: human breast cancer cell BT-474
# Test: Inhibitory action on breast cancer cell BT-474 proliferation in vitro
# Format: cell-based
# Details: 120 h, BT-474 cells, cultured 5 days, SRB staining
# Method: A suspension of human breast cancer cell BT-474 (100 μl (6,000 cells)) were sown to a 96-well microplate and cultured in an incubator (37° C., 5% carbon dioxide). On the following day, 100 μl of a solution of each test compound, which was previously diluted 2-fold, was added, and the cells were cultured for 5 days. After the culture medium containing the test compound was removed, the cells were washed and fixed with 50% trichloroacetic acid, after which a 0.4% (w/v) SRB solution (dissolved in 1% acetic acid) was added to fix and stain the cell protein (Skehan et al., Journal of the National Cancer Institute, Vol. 82, pp. 1107-1112, 1990). After washing with a 1% acetic acid solution, 100 μl of an extract (10 mM Tris solution) was added to extract the pigment, and absorbance was measured at an absorption wavelength of 550 nm to quantify the amount of cells as protein content. Taking as 100% the protein content for the control group, which received no test compound solution, the ratio of the residual protein content for each treatment group was determined, and the compound concentration required to achieve 50% suppression of the residual cell content relative to the control (IC50 value) was calculated.
row,SMILES,IC50 [nM]
1,"CN(C)C/C=C/C(=O)NCc1cc2ncnc(Nc3ccc(OCc4cccc(F)c4)c(Cl)c3)c2[nH]1 [Example 82, (2E)-N-{[4-({3-chloro-4-[(3-fluorobenzyl)oxy]phenyl}amino)-5H-pyrrolo[3,2-d]pyrimidin-6-yl]methyl}-4-(dimethylamino)but-2-enamide]",< 100

# Molecular target: T2, HER2 intracellular domain (Homo sapiens, UniProt P04626)
# T2 construct: made in house; host or cells: SF-21 insect cells, recombinant baculovirus BAC-HER2
# T2 sequence (P04626 676-1255 limits assumed): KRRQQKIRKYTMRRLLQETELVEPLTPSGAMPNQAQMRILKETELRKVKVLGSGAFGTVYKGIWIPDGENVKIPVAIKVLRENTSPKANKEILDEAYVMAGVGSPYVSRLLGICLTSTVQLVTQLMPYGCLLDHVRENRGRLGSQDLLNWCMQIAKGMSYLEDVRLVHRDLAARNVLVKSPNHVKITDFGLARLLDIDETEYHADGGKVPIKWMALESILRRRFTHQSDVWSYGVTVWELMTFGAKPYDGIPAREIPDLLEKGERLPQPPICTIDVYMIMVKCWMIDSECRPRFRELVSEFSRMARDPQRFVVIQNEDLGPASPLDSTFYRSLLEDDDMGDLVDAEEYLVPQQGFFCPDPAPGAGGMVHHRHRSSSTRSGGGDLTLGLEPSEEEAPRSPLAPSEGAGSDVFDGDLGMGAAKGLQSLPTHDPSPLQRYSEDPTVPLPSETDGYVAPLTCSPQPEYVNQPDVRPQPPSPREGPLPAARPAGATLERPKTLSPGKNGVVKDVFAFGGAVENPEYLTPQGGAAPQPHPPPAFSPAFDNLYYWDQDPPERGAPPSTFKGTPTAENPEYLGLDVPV
# Test: Determination of HER2 kinase inhibitory activity
# Format: biochemical
# Details: 1.0 μM test compound; poly-Glu:Tyr (4:1) substrate, [γ-32P]ATP, 25° C., 10 min; read-out: HER2 kinase Inhibitory rate (%) at 1.0 μM
# Method: Human HER2 gene was cloned by RT-PCR using total RNA prepared from MCF7 cells as a template. The primer used for RT-PCR was prepared from nucleotide sequence (Genbank Accession M11730) information of HER2 gene by adding a nucleotide sequence encoding flag peptide and a restriction enzyme recognition sequence to a nucleotide sequence (2176-3918 of Genbank Accession M11730) encoding the HER2 intracellular domain region, so that the protein contains an N-terminal Flag tag. The primer nucleotide sequence is shown below.
# The RT reaction was conducted using SuperScript First-Strand Synthesis System for RT-PCR (Invitrogen) and the PCR reaction was conducted using a KOD-plus kit (TOYOBO). The obtained PCR product was electrophoresed on agarose gel (1%), the DNA fragment amplified by PCR was recovered from the gel, and then digested with restriction enzymes Sal I and Sph I. The DNA treated with the restriction enzymes was electrophoresed on agarose gel (1%), and the obtained DNA fragment was recovered and ligated to plasmid pFASTBAC1 (Invitrogen) digested with restriction enzymes Sal I and Sph I to give expression plasmid pFB-HER2. The nucleotide sequence of the insertion fragment was confirmed and found to be identical with the nucleotide sequence (2176-3918 of Genbank Accession M11730) of HER2 intracellular domain. Furthermore, using BAC-TO-BAC Baculovirus Expression System (Invitrogen), recombinant baculovirus BAC-HER2 was prepared.
# SF-21 cells were sown at 1×10^6 cells/mL to Sf-900II SFM medium (1 L, Invitrogen) containing 10% fetal bovine serum (trace), 50 mg/L gentamicin (Invitrogen) and 0.1% Pluronic F-68 (Invitrogen), and shaking culture was performed using a 2 L volume Erlenmeyer flask at 27° C., 100 rpm. After culturing for 24 hrs, recombinant baculovirus BAC-HER2 (13.4 mL) was added, and the mixture was further cultured for 3 days. The culture medium was centrifuged at 2,000 rpm for 5 min. to give virus-infected cells. The infected cells were washed with a phosphate buffered saline (Invitrogen), centrifuged under the same conditions, and the cells were preserved at −80° C. The cryopreserved cells were thawed in ice, suspended in buffer A (50 mM Tris buffer (30 mL, pH 7.4) containing 20% glycerol, 0.15 M NaCl) supplemented with Complete Protease Inhibitor (Boehringer), and ruptured 3 times with a Polytron homogenizer (Kinematica) at 20,000 rpm for 30 sec. The rupture medium was clarified by centrifugation at 40,000 rpm for 30 min. and filtered with a 0.45 μm filter. The filtrate was passed through a column packed with Anti-FLAG M2 Affinity Gel (4 mL, Sigma) at a flow rate of about 0.5 mL/min. The column was washed with buffer A, and eluted with buffer A containing 100 μg/mL of FLAG peptide. The eluate was concentrated with Vivaspin 20 (Vivascience) having a molecular weight cut off of 30K. The concentrate was purified by gel filtration using Hi Load Superdex 200 pg 16/60 (Amersham Bioscience) equilibrated with buffer A. The fractions containing HER2 intracellular domain were collected, glycerol was added to the final concentration of 50% and cryopreserved at −80° C.
# A test compound dissolved in dimethyl sulfoxide (DMSO) was diluted with a buffer for kinase reaction (50 mM Tris-HCl (pH7.5), 5 mM MgCl2, 5 mM MnCl2, 2 mM dithiothreitol, 0.01% Tween-20). To this compound solution (10 μL) was added a buffer for kinase reaction (20 μL) containing 5 μg/mL of HER2 intracellular domain obtained in Experimental Example 1B and 12.5 μg/mL of polypeptide substrate poly-Glu:Tyr (4:1) (Sigma). To the obtained mixture was added 20 μL of ATP solution (1.25 μM ATP, 0.05 μCi [γ-^32P]ATP), the mixture was allowed to react at 25° C. for 10 min. and the reaction was quenched with 50 μL of 20% TCA solution. The reaction solution was allowed to stand at 4° C. for 20 min., and the acid insoluble fraction was transferred to GF/C filter (PerkinElmer) using cell harvester (PerkinElmer) and washed with 250 mM phosphoric acid solution. […]
row,SMILES,inhibition at 1 µM [%]
1,"Cc1ccc(Oc2ccc(Nc3ncnc4cc(/C=C/CO)[nH]c34)cc2C)cn1 [Example 13, (2E)-3-[4-({3-methyl-4-[(6-methylpyridin-3-yl)oxy]phenyl}amino)-5H-pyrrolo[3,2-d]pyrimidin-6-yl]-2-propen-1-ol]",94.9
2,"CCOCCn1ccc2ncnc(Nc3ccc(OCc4cccc(F)c4)c(Cl)c3)c21 [Example 38, N-{3-chloro-4-[(3-fluorobenzyl)oxy]phenyl}-5-(2-ethoxyethyl)-5H-pyrrolo[3,2-d]pyrimidin-4-amine]",95.9
3,"Cn1ccc2ncnc(Nc3ccc(OCc4cccc(F)c4)c(Cl)c3)c21 [Example 39, N-{3-chloro-4-[(3-fluorobenzyl)oxy]phenyl}-5-methyl-5H-pyrrolo[3,2-d]pyrimidin-4-amine]",96.1
4,"CC(C)(O)CC(=O)NCCn1ccc2ncnc(Nc3ccc(Oc4cccc(C(F)(F)F)c4)c(Cl)c3)c21 [Example 158, N-{2-[4-({3-chloro-4-[3-(trifluoromethyl)phenoxy]phenyl}amino)-5H-pyrrolo[3,2-d]pyrimidin-5-yl]ethyl}-3-hydroxy-3-methylbutanamide]",87
5,"Cc1cc(Nc2ncnc3ccn(CCNC(=O)CS(C)(=O)=O)c23)ccc1Oc1cccc(OC(F)(F)F)c1 [Example 190, 2-(methylsulfonyl)-N-{2-[4-({3-methyl-4-[3-(trifluoromethoxy)phenoxy]phenyl}amino)-5H-pyrrolo[3,2-d]pyrimidin-5-yl]ethyl}acetamide]",95.9
6,"CS(=O)(=O)CC(=O)NCCn1ccc2ncnc(Nc3ccc(Oc4cccc(Cl)c4)c(Cl)c3)c21 [Example 191, N-[2-(4-{[3-chloro-4-(3-chlorophenoxy)phenyl]amino}-5H-pyrrolo[3,2-d]pyrimidin-5-yl)ethyl]-2-(methylsulfonyl)acetamide]",100
